# Experimental data from US6835808B2, “Anti-heparin peptides” (Diagnostica-Stago, priority 2000, dated 2004).
# Columns and labels:
# [1] = system: UFH (unfractionated heparin, Calciparine) in plasma; test: Anti-heparin power in a PT (Quick time) test with thromboplastin reagent, heparinized vs nonheparinized plasma; type: biochemical; details: anti-heparin agent at 5 μg/ml in thromboplastin reagent; pool of normal plasma with 0 vs 1 IU/ml UFH; delta relative clotting time
# Description: The aim is to analyze the performance (anti-heparin power and turbidity) of anti-heparin agents incorporated into a Diagnostica Stago thromboplastin reagent.
# Analysis of the anti-heparin power: This is the ability of the anti-heparin agent to make the reagent insensitive to the heparin contained in the blood sample:
# The test samples are prepared from a pool of normal plasma which may or may not be overloaded with heparin (plasma heparinized with 1 IU/ml of UFH (Calciparine 25 000 IU/ml, Sanofi)).
# Comment: a reagent serving as a negative control, i.e. without anti-heparin agent, is of use to verify the heparinization of the plasma.
# To determine the Quick Time, the automated device (STA Diagnostica Stago—patent EP 0325874) removes 50 μl of sample plasma, which it allows to incubate at 37° C. for 240 seconds in a cupule containing a bead; it then transfers the cupule into the measuring area and adds 100 μl of thromboplastin reagent to the sample.
# The clotting time was determined in the following way: At constant viscosity, the amplitude of oscillation of the bead in the cupule (oscillation maintained using an electromagnetic field) is constant. When the viscosity increases (clotting phenomenon), the amplitude of oscillation of the bead decreases.
# An algorithm uses this variation in amplitude to determine the clotting time.
# The anti-heparin power is calculated in the following way: determination of the delta relative time between a heparinized and nonheparinized plasma, i.e.:
# [{CT(heparinized plasma)−CT(nonheparinized plasma)}/TC(nonheparinized plasma)×100]
# The anti-heparin power of the compounds according to the invention is estimated to be significant when this delta time is less than 10%.
# [2] = Turbidity of the thromboplastin reagent containing the anti-heparin agent (OD at 630 nm); type: physicochemical; details: anti-heparin agent at 5 μg/ml in thromboplastin-type reagent
# Description: The turbidity should be as low as possible for an application in diagnosis, and more particularly in a thromboplastin test (PT).
# This turbidity is determined by measuring the OD at 630 nm on a spectrophotometer (Uvikon 940, Kontron).
# Comment: a reagent serving as a negative control, i.e. without anti-heparin agent, is of use to measure the influence of this anti-heparin agent on the turbidity of the reagent.
Turbidity OD 630 nm [2],Substance,Anti-UFH power Delta time 0/1 IU/ml (in %) [1]
0.134 OD,Hyp-K4-(AHA)2-K4-AHA-K4-AHA-K2 [1415-3],3.4%
0.069 OD,PGlu-K4-(AHA)2-K4-AHA-K4-AHA-K2 [1415-5],4.5%
0.283 OD,Pro-K3-AHA-K4-APA-K4-APA-K2 [1403PK],8.7%
0.205 OD,Pro-K3-AHA-K4-APA-K4-APA-K2 [1403P],7.1%
0.086 OD,Pro-K4-(AHA)2-K4-AHA-K3-AHA-K2 [compound 1411],6.5%
0.323 OD,Pro-K4-(AHA)2-K4-AHA-K4-AHA-K2 [compound 1405],4.2%
0.147 OD,Pro-K4-AHA-K3-APA-K3-APA-K2 [compound 1404],7.6%
0.040 OD,Pro-K4-AHA-K3-APA-K4-APA-K3 [1408-2],6.9%
0.399 OD,Pro-K4-AHA-K4-APA-K3-APA-K3 [compound 1394],6.4%
0.488 OD,Pro-K4-AHA-K4-APA-K4-APA-K2 [compound 1401],8.1%
0.104 OD,Thi-K4-(AHA)2-K4-AHA-K4-AHA-K2 [1415-2],5.7%

Substance,Turbidity OD 630 nm [2],Anti-UFH power Delta time 0/1 IU/ml (in %) [1]
THC-K4-(AHA)2-K4-AHA-K4-AHA-K2 [1415-4],0.148 OD,5.9%
